Source: patent publication US6518012B1, “Method for regulating the expression of MHC antigens and CD40 by inhibitors of histone deacetylation” (Health Research, Inc., priority 1999, dated 2003)

How the values were obtained:
[1] = tested on: CD40 mRNA; assay: CD40 mRNA by real-time PCR in Colon 26 and J558; assay type: cell-based, mouse
Experimental: In order to obtain more quantitative information on fold changes in DR and CIITA after treatment with the deacetylase inhibitors, a real time fluorescence technique capable of quantitating low copy numbers of transcripts was carried out as follows. Oligonucleotide primers and TaqMan 5′-6-FAM and 3′-TAMRA-labeled probes were synthesized in the RPCI Biopolymer Facility. Primer and probe sequences are listed under Sequence Listing and also in FIG. 9. Sequences were designed using standard software (PrimerExpress software, PE Biosystems) except for human GAPDH.
Realtime PCR reactions contained TaqMan Universal PCR Master Mix (PE Biosystems), primers at 300 nM, and probes at optimal concentrations (150-225 nM depending on gene). Reactions were carried out on an ABI PRISM 7700 Sequence Detection System (PE Biosystems). Cycling conditions were 50° C. for 2 min, 95° C. for 10 min, then 60 cycles of 95° C. for 15 sec, 60° C. for 1 min. PCR samples were run in triplicate. The detection system and quantitative PCR was carried out as described by Williamson et al. (1995, Genet Res. 65:83-93). The threshold cycle number CT corresponded to the cycle number, at which the fluorescent emission reaches 10 standard deviations above the mean fluorescent emission, measured during the early ‘baseline’ cycles of the PCR. The CT values for triplicates were averaged and normalized to GAPDH levels. […] In such cases, in order to calculate a minimum fold change for other samples in the same group, the CT value was arbitrarily set at 40. […] Assuming reverse transcription efficiencies were approximately the same for each sample, relative amounts of mRNA using the comparative CT method. Fold changes in mRNA levels were calculated as 2^x where x=the difference between normalized CT values of the control and experimental samples.
This embodiment illustrates the effect of DAIs on costimulatory molecules. Because of the importance of costimulatory molecules in the cellular activation mechanism involving MHC complexes, the effect of DAIs on the expression of B7-1, B7-2 and CD40 genes was investigated by real-time PCR as well as RT-PCR. While no consistent changes in B7-1 and B7-2 were detected (data not shown), CD40 expression was enhanced by TSA in all three cell types (FIGS. 7A, B, C). MC cells constitutively expressed low levels of CD40 and IFNγ enhanced CD40 mRNA levels 5-fold while TSA elicited a 12-fold increase at 24 hours (FIG. 7A). […] GADPH mRNA remained essentially unchanged with both the primer sites used in RT-PCR and real-time PCR. The lack of induction of CD40 by IFNγ in J558 cells is consistent with the failure of IFNγ to activate other IFNγ inducible genes.

[2] = tested on: HLA-DRα mRNA; assay: HLA-DRα mRNA by standard PCR and real-time PCR in human cell lines JAR and SK-N-MC; assay type: cell-based; conditions: for fold increase in expression of DR: MC cells, real time PCR, 100 nM TSA 24 hr, NaBu 1 mM 48 hr, IFNγ any concentration or time point; for levels of mRNA for HLA-DRα (DR): SK-N-MC, RT-PCR, 100 nM TSA 24 hours, 1 mM NaBu 48 hours, IFNγ
[3] = tested on: MHC class I; assay: Cell surface MHC class I by flow cytometry on Colon 26 and J558; assay type: cell-based, mouse
Experimental: To determine the effect of TSA on cell surface protein expression, the J558 cell line was subjected to flow cytometric analyses as follows. Flow cytometric analyses were conducted by standard methods using cells fixed with 1.0% paraformaldehyde and analyzed on the FACScan (Becton Dickinson). Cell cycle analyses were carried out by flow cytometry with PI staining of genomic DNA. Cells were fixed and permeablized in methanol, treated with RNaseA and analyzed for DNA content by determination of FL3-area on the FACScan. The FL3-area data were analyzed with the ModFit software for determination of the percent cells in each phase of the cell cycle. In some cases, fluorescein isothiocyanate (FITC)-conjugated antibody staining was conducted prior to PI treatment and surface staining was analyzed as a function of cell cycle phase. Apoptosis was analyzed by staining with annexin-V directly conjugated with either FITC or RPE and by sub-G0 analysis of DNA staining. Expression levels without treatment are shown as shaded peaks, IFNγ treated cell expression is plotted by a thin line while the level of expression on TSA treated cells is represented by a heavy line. Isotype controls were analyzed and, in each case, fell on or below the levels shown for control cells. […] Since all cells were positive for MHC class I expression, the number under the histogram represents -fold change of expression calculated from the mean channel-shift after treatment relative to untreated cells. […] Of the 13 markers analyzed on J558 cells, only class I, II and CD40 were enhanced, while levels of several non-expressed antigens were not elicited (including CD25, B7 integrin, CD40L, H2K^k and IA^k) while other markers, which were expressed, were not altered (including CD44, CD54, CD80, CD86 and CD119) by TSA treatment. […] The separation of control and IFNγ curves in the CD40, J558 experiment depicted in FIG. 8 represents a mean channel fluorescence difference of only 1.3 and was not seen on independent replicates of the experiment. […]

[4] = Colon 26, 60 cycles, 100 U/ml IFNγ for 24 hours, TSA (12 and 48 hours)
[5] = J558, TSA 25 nM for 24 hours, IFNγ

CC(/C=C/C(=O)NO)=C\[C@@H](C)C(=O)c1ccc(N(C)C)cc1 [TSA, Trichostatin A] was tested, and the “CD40 mRNA fold increase” value [1, 4] was 147 fold, the “CD40 mRNA fold increase” value [1, 5] was 161 fold and the “fold increase in expression of DR” value [2] was 108 fold. The “levels of mRNA for HLA-DRα (DR)” value [2] was “substantial increase”, the “MHC class I expression on cell surface” value ([3]; Colon 26 and J558, flow cytometry) was “enhanced” and the “class I expression as a function of cell cycle phase” value ([3]; J558, double staining with PI and antibody to class I) was “induced expression throughout the cell cycle”.

“IFNγ: gamma-interferon, cytokine used as comparator at 100 U/ml” was tested, and the “CD40 mRNA fold increase” value [1, 4] was “undetectable”, the “CD40 mRNA fold increase” value [1, 5] was “did not change” and the “fold increase in expression of DR” value [2] was “did not stimulate”. For the same molecule, the “levels of mRNA for HLA-DRα (DR)” value [2] was “cannot be induced” and the “MHC class I expression, response to IFNγ” value ([3]; J558, IFNγ 100 U/ml) was “unresponsive”.
